Assay results from publication PMC12040169 (PLOS Biology, 2025).

Experiment: in vitro
Settings: human, hela cells, % viability

Question: Which viability at 28.5 h, 10 µM does the source give for `CC(=O)Nc1cccc(C(=O)NCC(c2cccs2)N(C)C)c1` (centres unmarked) [CBK304583] here?
Answer: 86.7%

Question: For `O=S(=O)(c1ccc(-n2cnc(Cl)c2Cl)cc1)N1CCCN(Cc2ccc3cccc(O)c3n2)CC1` [CBK063088], which viability at 28.5 h, 10 µM is on record?
Answer: 92%

Question: With `OCCN1CCN(c2ncnc3scc(-c4ccccc4)c23)CC1` [CBK287582] as the molecule, how does the viability at 28.5 h, 10 µM read?
Answer: 94.6%

Question: Which viability at 28.5 h, 10 µM does the source give for `O=C(NCCOc1cccc(Cl)c1Cl)c1ccccc1-c1ccccc1` [CBK267390] here?
Answer: 40.6%

Question: For `O=C(O)c1cccc(CSc2nnc(-c3ccncc3)o2)c1` [CBK266310], which viability at 28.5 h, 10 µM is on record?
Answer: 106%

Question: Which viability at 28.5 h, 10 µM does the source give for `CC(Cn1cccn1)NS(=O)(=O)c1ccc(N2CCCC2=O)cc1` (centres unmarked) [CBK305606] here?
Answer: 83.7%

Question: For `CCOC(=O)c1c(N)n(-c2cccc(C(F)(F)F)c2)c2nc3ccccc3nc12` [CBK264977], which viability at 28.5 h, 10 µM is on record?
Answer: 95.6%

Question: For `O=C1CCC(=O)N1CCOc1nccnc1N1CCN(Cc2ccc([N+](=O)[O-])cc2)CC1` [CBK084294], which viability at 28.5 h, 10 µM is on record?
Answer: 93%

Question: With `CCc1ccc2[nH]c(=O)c(CN(CCN(C)C)C(=S)NCc3ccccc3)cc2c1` [CBK134905] as the molecule, how does the viability at 28.5 h, 10 µM read?
Answer: 98.4%

Question: With `CCCc1c(OCCCCc2nnn[nH]2)ccc(C(C)=O)c1O` [CBK007468] as the molecule, how does the viability at 28.5 h, 10 µM read?
Answer: 90.4%

Question: Which viability at 28.5 h, 10 µM does the source give for `CCC1CN(CC(=O)NCc2ccc(OCC(N)=O)cc2)CCO1` (centres unmarked) [CBK305774] here?
Answer: 102%

Question: Which viability at 28.5 h, 10 µM does the source give for `O=C(O)C1(Cc2cccc(-c3cccs3)c2)CCCNC1` (centres unmarked) [CBK281688] here?
Answer: 90.5%

Question: For `CC(C)(C)c1ccc(Oc2c(C(F)(F)F)oc3cc(OCC(=O)O)ccc3c2=O)cc1` [CBK217882], which viability at 28.5 h, 10 µM is on record?
Answer: 94.1%

Question: Which viability at 28.5 h, 10 µM does the source give for `OCCN(Cc1cccnc1)CC1(c2ccc(Cl)cc2)CC1` [CBK282943] here?
Answer: 101%

Question: Which viability at 28.5 h, 10 µM does the source give for `CSc1ncc(Cl)c(C(=O)Nc2sc3c(c2C(=O)NCc2ccco2)CCC3)n1` [CBK268991] here?
Answer: 97.2%

Question: For `Cc1cccc(-c2ncc(NC(=O)Cc3ccc(-c4ccccc4)cc3)nc2-c2ccc(N(C)C)cc2)c1` [CBK037567], which viability at 28.5 h, 10 µM is on record?
Answer: 98.1%

Question: For `O=C(C[C@@H]1CCNC[C@@H]1Cc1cc(CN2CCCCC2)on1)N1CCCCC1` [CBK289153], which viability at 28.5 h, 10 µM is on record?
Answer: 86.8%

Question: For `CC(NC(=O)N1CCN(CCc2ccccc2)CC1)c1ccccc1` (centres unmarked) [CBK158935], which viability at 28.5 h, 10 µM is on record?
Answer: 85.1%

Question: For `CC1(C)NC(=O)N(CC(O)CN(c2cc(Cl)ccc2Cl)S(=O)(=O)c2ccccc2)C1=O` (centres unmarked) [CBK033672], which viability at 28.5 h, 10 µM is on record?
Answer: 91.4%

Question: With `Cn1ncc2c1CCCN(C(=O)COc1cccc(F)c1)C2` [CBK285257] as the molecule, how does the viability at 28.5 h, 10 µM read?
Answer: 96.9%

Question: With `Cc1cc(N2CCN(C(=O)CCc3ccsc3)CC2)nc(C(C)C)n1` [CBK305710] as the molecule, how does the viability at 28.5 h, 10 µM read?
Answer: 113%

Question: Which viability at 28.5 h, 10 µM does the source give for `Cc1cccc(/N=C(\N)Nc2nc(=O)cc(C)[nH]2)c1` [CBK288144] here?
Answer: 93.1%

Question: With `FC(F)(F)c1ccc(OCCOc2ccccc2)nc1` [CBK115829] as the molecule, how does the viability at 28.5 h, 10 µM read?
Answer: 80.4%

Question: With `Cc1cc2c([nH]c3ccccc32)c(C)n1` [CBK262689] as the molecule, how does the viability at 28.5 h, 10 µM read?
Answer: 104%

Question: Which viability at 28.5 h, 10 µM does the source give for `CN(C)CCN(C)C(=O)Cc1csc(-c2cccc(Cl)c2)n1` [CBK282176] here?
Answer: 111%

Question: For `Nc1nc2n(n1)C(c1ccccc1)C1=C(CCCC1)N2` (centres unmarked) [CBK287949], which viability at 28.5 h, 10 µM is on record?
Answer: 107%

Question: Which viability at 28.5 h, 10 µM does the source give for `CN1CCC(N(C)C/C(Cl)=C/c2ccccc2)CC1` [CBK261903] here?
Answer: 92.1%

Question: Which viability at 28.5 h, 10 µM does the source give for `CC1(C(=O)O)CCC(C(=O)O)C1(C)C` (centres unmarked) [CBK261830] here?
Answer: 96.1%

Question: Which viability at 28.5 h, 10 µM does the source give for `COc1ccc2nc(-c3cccc(NC(=O)c4ccc(F)cc4)c3)cn2n1` [CBK287826] here?
Answer: 104%

Question: For `COc1ccccc1-c1ccnc(N[C@H]2CO[C@H]3[C@@H]2OC[C@@H]3NC(=O)C2CCCCC2)n1` [CBK289529], which viability at 28.5 h, 10 µM is on record?
Answer: 94.8%

Question: For `O=C(O)c1cc2ncc(-c3n[nH]cc3[N+](=O)[O-])cn2n1` [CBK269072], which viability at 28.5 h, 10 µM is on record?
Answer: 100%

Question: Which viability at 28.5 h, 10 µM does the source give for `Cc1ccc(OCc2occc2C(=O)N2CCc3[nH]cnc3C2)cc1` [CBK307717] here?
Answer: 85.6%

Question: With `Cc1c(N2C(=O)/C(=C3\C(=O)Nc4ccc([N+](=O)[O-])cc43)SC2=S)c(=O)n(-c2ccccc2)n1C` [CBK263071] as the molecule, how does the viability at 28.5 h, 10 µM read?
Answer: 115%

Question: Which viability at 28.5 h, 10 µM does the source give for `CCOC(=O)N1CCN(C(=O)c2oc3ccccc3c2C)CC1` [CBK023696] here?
Answer: 92.4%

Question: For `COc1ccc(C(=O)[C@@H]2CCCC[C@H]2N)cc1` [CBK023040C], which viability at 28.5 h, 10 µM is on record?
Answer: 91.6%
